Measurements reported in PubChem BioAssay (NCI).
Several values for one entry are separate records, joined by “and”; a condition that tells them apart may be missing. Identical values can stand only once.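 Protocol summary: plate cells (96-well), add compound at 5 concentrations, incubate 48 h, interpolate endpoints linearly. GI50 is the concentration that inhibits growth by half. TGI marks complete inhibition of growth.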

Columns and labels:
Assay in all cases: growth of human tumour cells (NCI), 48 h
[1] = tested on: SF-539 CNS
[2] = tested on: UACC-257 melanoma
[3] = tested on: SK-OV-3 ovarian
[4] = tested on: OVCAR-3 ovarian
[5] = tested on: 786-0 renal
[6] = tested on: RPMI-8226 leukemia
[7] = tested on: SN12C renal
[8] = tested on: UACC-62 melanoma
[9] = tested on: LOX IMVI melanoma
[10] = tested on: HOP-62 NSCLC
[11] = tested on: SW-620 colon
[12] = tested on: MALME-3M melanoma
[13] = tested on: MDA-N

| Compound | TGI [1] | TGI [2] | TGI [3] [µM] | TGI [4] | TGI [5] [µM] | TGI [6] [µM] | TGI [7] | TGI [8] | TGI [9] | TGI [10] [µM] | TGI [11] | TGI [12] [µM] | TGI [13] [µM] | GI50 [1] [µM] | GI50 [2] [µM] | GI50 [12] [µM] | GI50 [8] [µM] | GI50 [9] [µM] | GI50 [11] [µM] |
| --- | --- | --- | --- | --- | --- | --- | --- | --- | --- | --- | --- | --- | --- | --- | --- | --- | --- | --- | --- |
| Nc1ccccc1-c1noc(=O)[nH]1 | > 100 µM | > 100 µM | > 100 | > 100 µM | > 100 | > 100 | > 100 µM | > 100 µM | > 100 µM | > 100 | > 100 µM | – | – | – | – | – | – | – | – |
| CC1=NN(c2nc(N)nc(/C(C#N)=C/c3ccccc3O)n2)C(C)(C)C1 | 30.6 µM | 38.5 µM | 53.2 | 27.8 µM | 29.1 | 36.2 | 71.9 µM | 33.5 µM | – | 38.8 | – | 33.8 | 30.7 | – | – | – | – | – | – |
| COc1cc2c(cc1OC)[C@@H]1[C@H](C#N)C(=O)C(C)(C)N1CC2 | – | > 100 µM | > 100 | > 100 µM | > 100 | > 100 | > 100 µM | > 100 µM | > 100 µM | – | > 100 µM | > 100 | > 100 | – | – | – | – | – | – |
| COc1c2c(cc3c1C(=O)c1c(O)cccc1C3=O)CC(O)CC2 (stereo not given) | > 100 µM | > 100 µM | 59 | > 100 µM | > 100 | – | > 100 µM | > 100 µM | > 100 µM | 46 | > 100 µM | > 100 | > 100 | – | – | – | – | – | – |
| CC1(C)CCc2ccc(OCCC(=O)O)cc2O1 | > 100 µM | – | > 100 | > 100 µM | – | > 100 | > 100 µM | > 100 µM | > 100 µM | > 100 | > 100 µM | > 100 | – | – | – | – | – | – | – |
| S=C(N1CCN(c2ccc(Cl)c(Cl)c2)CC1)N1CCN(c2ccc(Cl)c(Cl)c2)CC1 | – | 30.9 µM | 25.1 | 26.3 µM | 22.7 | 39.4 | – | 28.8 µM | – | 26.5 | 33.8 µM | 28.1 | 23.8 | – | – | – | – | – | – |
| Cc1ccc2c(c1)[nH]c(=S)n2C=C(C(N)=O)C(N)=O | > 100 µM | > 100 µM | > 100 | > 100 µM | > 100 | – | > 100 µM | > 100 µM | > 100 µM | > 100 | > 100 µM | – | > 100 | – | – | – | – | – | – |
| C=C1C(=O)[C@@]23CC[C@H]4[C@@](C)(CCC[C@@]4(C)C(=O)OC)[C@@H]2CC[C@]1(O)C3 | 11.2 µM and 3.18 µM | 3.42 µM and 3.11 µM | 33.4 | 3.48 µM and 3.25 µM | – | 0.969 | 3.06 µM and 3.23 µM | 2.78 µM and 2.95 µM | 2.64 µM and 2.22 µM | 34.7 | 2.84 µM and 1.85 µM | 9.8 | – | 3.53 | 1.97 | 2.51 | 1.33 | 1.34 | 0.878 |
| O=C(C1OC1c1ccc(Cl)cc1)C12CC3CC(CC(C3)C1)C2 (stereo not given) | 32.5 µM | 54.7 µM | 74 | 30 µM | 30.7 | – | 32.2 µM | 45.1 µM | 16.6 µM | 56.5 | 44.6 µM | 69.8 | 36.6 | – | – | – | – | – | – |
| NC1c2c(Br)sc(N3CCCC3)c2C(=O)C1O (stereo not given) | > 50 µM | > 50 µM | > 50 | > 50 µM | > 50 | – | > 50 µM | > 50 µM | > 50 µM | – | > 50 µM | > 50 | > 50 | – | – | – | – | – | – |
| CCCCCCNC(=O)C(C)C1CCC2(C)C=CC(=O)C(C)=C2C1O (stereo not given) | > 100 µM | > 100 µM | > 100 | > 100 µM | – | > 100 | > 100 µM | > 100 µM | > 100 µM | > 100 | > 100 µM | – | – | – | – | – | – | – | – |
| Cc1ccc(N=N/C(=N/NC(=O)c2cc(Cl)ccc2O)c2ccc(N(CCC#N)CCC#N)cc2C)cc1 | 46.4 µM | 47.2 µM | 74.2 | 55.9 µM | > 100 | > 100 | 85.6 µM | 59.7 µM | – | > 100 | – | 47.8 | > 100 | – | – | – | – | – | – |
| COc1cccc(-c2nc3ccccc3c(=O)[nH]2)c1 | 50.3 µM | 56.2 µM | 48.2 | 42.7 µM | 28.1 | – | 82.2 µM | 44 µM | > 100 µM | 37.1 | > 100 µM | 52.5 | 36.9 | – | – | – | – | – | – |
| N/C(=N\N=C/c1ccc(O)c(O)c1O)NO | > 100 µM | > 100 µM | > 100 | 51 µM | – | > 100 | 34.9 µM | 41.5 µM | 33.9 µM | > 56.4 | 39.1 µM | > 100 | – | – | – | – | – | – | – |
| Cc1nnc2n1N=C(c1ccccc1)/C(=C/c1ccc(-c3ccc(Cl)cc3)o1)S2 | – | 36.2 µM | > 100 | 23.9 µM | 27.2 | 26.8 | 35.7 µM | 29.1 µM | – | 49.8 | 47.7 µM | 33.6 | 34 | – | – | – | – | – | – |
| CN(C)CCNc1ccc([N+](=O)[O-])c2sc3ccccc3c(=O)c12 | 13.7 µM | 19.6 µM | > 100 | 32.6 µM | 20.8 | 7.52 | > 100 µM | 16.8 µM | – | 8.36 | > 100 µM | 17.9 | 21.6 | – | – | – | – | – | – |
| O=[N+]([O-])c1cccc2nc3ccccc3c(NCCCCNc3c4ccccc4nc4cccc([N+](=O)[O-])c34)c12 | 0.102 µM | 0.682 µM | 1.69 | 0.231 µM | 0.0943 | – | 0.38 µM | 0.302 µM | 0.258 µM | 0.372 | 0.174 µM | 0.255 | – | – | – | – | – | – | – |
| Cc1c2n(c(=O)[nH]c1=O)C1OC(CO)C(O2)C1N=[N+]=[N-] (stereo not given) | > 100 µM | > 100 µM | > 100 | > 100 µM | > 100 | > 100 | > 100 µM | > 100 µM | > 100 µM | > 100 | > 100 µM | – | – | – | – | – | – | – | – |
